Like-named read-outs stand apart in the source and are kept apart here.
How the values were obtained:
phospho-ERK1/2 = details: cited from earlier work
[1] = test system: M249-R4 melanoma cell line; test: Anti-proliferative effect of small molecules, MTS assay; assay type: cell-based; details: M249-R4 (M249-AR4), in vitro acquired resistance, 72 hours
Description: (§1) The anti-proliferative effect of small molecules in melanoma cell lines was determined with V600E BRAF inhibitor, vemurafenib (PLX-4032, 51267, Selleck) and MEK inhibitor, selumetinib (AZD-6244, S1008, Selleck). For each cell line optimal growth conditions were determined prior to the experiment. Cells were plated in a 96-well plate at 3000 cells per well (100 uL) and were grown at 37 C, 5% CO2. Small molecule mix (50 uL per well) was made for each concentration in medium. Cells were treated in triplicate 24 hours after plating. After 72 hours medium was replaced and viability was measured with the MTS assay (Promega) according to manufacturer's instructions. Cell viability inhibition is normalized against loading control (0.1% DMSO) and GraphPad Prism was used to fit the curve and calculate GI50 values.

[2] = test system: A375Hu melanoma cell line; test: as above; assay type: cell-based; details: Homo sapiens, A-375, 72 h, A375Hu (A375), vemurafenib sensitive
Description: as §1

[3] = test system: A375Hu-R1 (vemurafenib resistant clone of A375Hu); test: as above; assay type: cell-based; details: Homo sapiens, A375Hu-R1 (A375-R), in vitro acquired resistance, 72 hours
Description: as §1
The A375Hu melanoma cell line was used to make a vemurafenib (PLX-4032) resistant sub line. A375Hu cells were plated at low density in 96-well plates and exposed to 1 uM PLX-4032. Cell growth was monitored until clonal growth was observed. Wells with clonal growth (approximately 5%) were replated in a 96-well plate and exposed to 1 uM PLX-4032. The 10 best growing clones were replated in 6-well plates in 1 uM PLX-4032 and the three best growing clones were used for further culturing. Clone number 1 (A375Hu-R1) grew best with 1 uM PLX-4032 and was chosen for additional experiments.

[4] = test system: SKMEL-57 melanoma cell line; test: as above; assay type: cell-based; details: SKMEL-57, vemurafenib sensitive
Description: as §1
(§2) A375 cells were obtained from the Hubrecht Institute (Utrecht, The Netherlands); SKMEL-28, A2058 and RPMI-7951 were from the ATCC; SKMEL-57 was a gift from Dr. Patricia Groenen (Radboud University Nijmegen Medical Centre, The Netherlands); for cell line characteristics of M249, M249-AR4, M233 and M376 see (Atefi et al. 2011). A375-R, with in vitro acquired resistance to vemurafenib, was established in our lab by clonal selection of cells continually exposed to 1 μM vemurafenib. A375, A375-R, SKMEL-28, A2058 and SKMEL-57 were grown in DMEM GlutaMAX™-I (Gibco®), all other cell lines in RPMI-1640 (Gibco®). Media was supplemented with 10% FBS (Sigma), and cells were maintained in a humidified 37° C. incubator (Thermo Scientific) with 5% CO2. Vemurafenib (PLX4032; Selleck Chemicals) was diluted in DMSO to a stock concentration of 10 mM.

[5] = test system: SKMEL-28 melanoma cell line; test: as above; assay type: cell-based; details: Homo sapiens, SK-MEL-28, SKMEL-28, vemurafenib sensitive
Description: as §1, §2

M376 melanoma cell line = test: as above; assay type: cell-based; details: M376, in vivo acquired resistance
Description: as §1, §2

M233 melanoma cell line = test: as above; assay type: cell-based; details: M233, vemurafenib resistant
Description: as §1, §2

[6] = test system: BRAFV600E mutant melanoma cell lines SKMEL-28, SKMEL-57 and M249; test: MTS cell viability after miR-3157 mimic transfection, vemurafenib-sensitive lines; assay type: cell-based; details: SKMEL-28, SKMEL-57, M249; 10 nM mimic, 72 hours (FIG. 11a)
Description: (§3) miR-3157 broadly affects melanoma cell line viability. Melanoma cell lines were divided into those that have the BRAFV600E mutation and are sensitive (a), intrinsically resistant (b) or acquired resistance to vemurafenib (c). Cell lines were transfected in triplicate with control miRNA or miR-3157 mimics (10 nM; n=2). Mock is transfectant only. Cell viability was determined using the MTS assay and calculated relative to mock transfected cells.
as §2, with “Vemurafenib (PLX4032; Selleck Chemicals) was diluted in DMSO to a stock concentration of 10 mM.” left out
(§4) Cells were seeded in 96-well plates and transfected the next day. […] Read-out was performed at 490 nm on a Multiskan FC plate reader (Thermo Scientific) at 72 hours post transfection.

[7] = test system: BRAFV600E mutant melanoma cell lines A2058, RPMI-7951 and M233; test: MTS cell viability after miR-3157 mimic transfection, intrinsically resistant lines; assay type: cell-based; details: A2058, RPMI-7951, M233; 10 nM mimic, 72 hours (FIG. 11b)
Description: as §3
as §2, with “Vemurafenib (PLX4032; Selleck Chemicals) was diluted in DMSO to a stock concentration of 10 mM.” left out
as §4

ERK1 = test: Western blotting of ERK1 protein levels; assay type: cell-based, human
Description: Transfection was performed as described in Example 4 in 6-well format. Proteins were isolated using RIPA buffer (50 mM Tris pH 8.0, 150 mM NaCL, 1% NP-40, 0.5% Sodium deoxycholate, 0.1% SDS), supplemented with Protease Inhibitor Cocktail (Sigma) and Halt™ Phosphatase Inhibitor Cocktail (Pierce/Thermo Scientific). Fifteen μg protein was loaded on a 12% Mini-PROTEAN® TGX™ Precast Gel (Bio-Rad), and proteins were transferred to Immun-Blot PVDF Membrane (Bio-Rad). Membranes were blocked in 5% milk or 5% BSA in TBS-T, and incubated O/N at 4° C. with primary antibodies against α-tubulin (1:5000), BRAF, pERK1/2, CDK4, RRM2 (all 1:1000), BCL-2 (1:500) (Santa Cruz), total-ERK1/2 (1:2000), BIRC5, AURKB (1:1000) (Cell Signaling), ERK1 (1:2000) (GeneTex). After incubation with appropriate secondary antibodies and western blot chemiluminescence substrate ECL (Pierce/Thermo Scientific), membranes were exposed to CL-XPosure Film (Pierce/Thermo Scientific).

[8] = test system: A375-R, M249-AR4 and M376; test: MTS cell viability after miR-3157 mimic transfection, acquired resistance lines; assay type: cell-based; details: 10 nM mimic, 72 hours (FIG. 11c)
Description: as §3
as §2, with “Vemurafenib (PLX4032; Selleck Chemicals) was diluted in DMSO to a stock concentration of 10 mM.” left out
as §4

| Compound | pERK (phospho-ERK1/2; A375, A2058 and M249 (Atefi et al. 2011, Nazarian et al. 2010)) | pERK (phospho-ERK1/2; M249-AR4 and M376 (Atefi et al. 2011, Nazarian et al. 2010)) | GI50 [1] | GI50 [2] | GI50 [3] | GI50 [4] | GI50 [5] | GI50 (M376 melanoma cell line) | GI50 (M233 melanoma cell line) | cell viability relative to mock transfected cells [6] | cell viability relative to mock transfected cells [7] | ERK1 protein levels (ERK1; A375 cells, increasing concentrations of mimic (FIG. 12c)) | ERK1 protein levels (ERK1; A2058, M249, M249-AR4 and M376, increasing concentrations of mimic (FIG. 14a)) | cell viability relative to mock transfected cells [8] |
| --- | --- | --- | --- | --- | --- | --- | --- | --- | --- | --- | --- | --- | --- | --- |
| CCCS(=O)(=O)Nc1ccc(F)c(C(=O)c2c[nH]c3ncc(-c4ccc(Cl)cc4)cc23)c1F [Vemurafenib, N-(3-{[5-(4-chlorophenyl)-1H-pyrrolo[2,3-b]pyridin-3-yl]carbonyl}-2,4-difluorophenyl)propane-1-sulfonamide] | downregulates | not | > 10000 nM | ~100 nM | > 10000 nM | ~800 nM | ~600 nM | > 10000 nM | > 10000 nM |  |  |  |  |  |
| hsa-miR-3157-5p: mature miRNA mimic, SEQ ID NO 6 UUCAGCCAGGCUAGUGCAGUCU (listed as RNA, chemistry not given here) |  |  |  |  |  |  |  |  |  | strongly reduced cell viability | viability was reduced | most pronounced | not very strongly affected | reduced viability |

— patent US10201556B2, “Combination for use in treating diseases or conditions associated with melanoma, or treating diseases or conditions associated with activated B-raf pathway” (InteRNA Technologies B.V., priority 2012, dated 2019)
